Experimental data as given in patent US20260356840A1, “[1,2,4]TRIAZOLO[1,5-A]PYRIMIDINONE WRN INHIBITORS” (Nimbus Wadjet, Inc., priority 2023, published 2026).

Target: T1, human Werner helicase (Uniprot Q14191, amino acids 517-1235 with L1074F point mutation), WRN-BV08 (Homo sapiens, UniProt Q14191, L1074F)
T1 construct: Uniprot Q14191, amino acids 517-1235 with L1074F point mutation; TEV cleavable 8xHis tag (C, cleaved yes); made in house; host or cells: Sf9 insect cells (baculovirus, pFastBac)
Test: WRN (BV08) ADP-Glo Assay
Type: biochemical

T1 sequence (Q14191 517-1235 L1074F): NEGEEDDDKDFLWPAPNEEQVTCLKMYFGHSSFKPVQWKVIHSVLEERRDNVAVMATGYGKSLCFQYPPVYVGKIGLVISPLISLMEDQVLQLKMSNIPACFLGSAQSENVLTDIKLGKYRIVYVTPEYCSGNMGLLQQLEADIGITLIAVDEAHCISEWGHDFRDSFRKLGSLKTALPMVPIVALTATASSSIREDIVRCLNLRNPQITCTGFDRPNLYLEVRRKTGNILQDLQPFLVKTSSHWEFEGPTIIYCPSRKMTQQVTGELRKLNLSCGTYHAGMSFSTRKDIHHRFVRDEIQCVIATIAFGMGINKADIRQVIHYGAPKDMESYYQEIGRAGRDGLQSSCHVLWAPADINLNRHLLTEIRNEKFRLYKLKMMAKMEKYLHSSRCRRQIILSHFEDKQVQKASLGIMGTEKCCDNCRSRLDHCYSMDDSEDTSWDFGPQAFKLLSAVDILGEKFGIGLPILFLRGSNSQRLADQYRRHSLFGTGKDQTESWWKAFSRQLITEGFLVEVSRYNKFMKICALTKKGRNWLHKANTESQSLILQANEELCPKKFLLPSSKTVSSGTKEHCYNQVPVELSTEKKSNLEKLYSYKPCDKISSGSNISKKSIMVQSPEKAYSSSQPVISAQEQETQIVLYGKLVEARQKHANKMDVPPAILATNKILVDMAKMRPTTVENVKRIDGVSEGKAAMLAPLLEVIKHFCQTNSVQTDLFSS

How did the IC50 turn out when `CCc1c(N2CCN(C(=O)c3cnn(C4CC4)c3)CC2)c(=O)n2nc(-c3ccnc(OC)c3)nc2n1CC(=O)Nc1ccc(C(F)(F)F)cc1Cl` [Compound I-60, N-[2-chloro-4-(trifluoromethyl)phenyl]-2-{6-[4-(1-cyclopropyl-1H-pyrazole-4-carbonyl)piperazin-1-yl]-5-ethyl-2-(2-methoxypyridin-4-yl)-7-oxo-4H,7H-[1,2,4]triazolo[1,5-a]pyrimidin-4-yl}acetamide] was run?
The IC50 was 5 to 50 nM.

With `CCc1c(N2CCN(C(=O)c3ncc4c(c3O)CCO4)CC2)c(=O)n2nc(C3=CCOCC3)nc2n1CC(=O)Nc1ccc(C(F)(F)F)cc1Cl` [Compound I-84, N-[2-chloro-4-(trifluoromethyl)phenyl]-2-[2-(3,6-dihydro-2H-pyran-4-yl)-5-ethyl-6-(4-{4-hydroxy-2H,3H-furo[2,3-c]pyridine-5-carbonyl}piperazin-1-yl)-7-oxo-4H,7H-[1,2,4]triazolo[1,5-a]pyrimidin-4-yl]acetamide] as the compound, how does the IC50 read?
The IC50 was under 5 nM.

How did the IC50 turn out when `CCc1c(N2CCN(C(=O)c3cnn(C(F)F)c3)CC2)c(=O)n2nc(-c3ccnc(OC)c3)nc2n1CC(=O)Nc1ccc(C(F)(F)F)cc1Cl` [Compound I-61, N-[2-chloro-4-(trifluoromethyl)phenyl]-2-(6-{4-[1-(difluoromethyl)-1H-pyrazole-4-carbonyl]piperazin-1-yl}-5-ethyl-2-(2-methoxypyridin-4-yl)-7-oxo-4H,7H-[1,2,4]triazolo[1,5-a]pyrimidin-4-yl)acetamide] was run?
Its IC50 is 5 to 50 nM.

`CCc1c(N2CCN(C(=O)c3cnn(C)c3)CC2)c(=O)n2nc(-c3cccnc3OC)nc2n1CC(=O)Nc1ccc(C(F)(F)F)cc1Cl` [Compound I-54, N-[2-chloro-4-(trifluoromethyl)phenyl]-2-[5-ethyl-2-(2-methoxypyridin-3-yl)-6-[4-(1-methyl-1H-pyrazole-4-carbonyl)piperazin-1-yl]-7-oxo-4H,7H-[1,2,4]triazolo[1,5-a]pyrimidin-4-yl]acetamide] was tested. Which IC50 did it give?
Its IC50 is 5 to 50 nM.

Which IC50 does the source give for `CCc1c(N2CCN(C(=O)c3nocc3O)CC2)c(=O)n2nc(C3=CCOCC3)nc2n1CC(=O)Nc1ccc(C(F)(F)F)cc1Cl` [Compound I-29, N-[2-chloro-4-(trifluoromethyl)phenyl]-2-[2-(3,6-dihydro-2H-pyran-4-yl)-5-ethyl-6-[4-(4-hydroxy-1,2-oxazole-3-carbonyl)piperazin-1-yl]-7-oxo-4H,7H-[1,2,4]triazolo[1,5-a]pyrimidin-4-yl]acetamide] here?
Its IC50 is under 5 nM.

For `CCc1c(N2CCN(C(=O)c3ncnc(C)c3O)CC2)c(=O)n2nc(-c3ccnc(OC)c3)nc2n1CC(=O)Nc1ccc(C(F)(F)F)cc1Cl` [Compound I-21, N-[2-chloro-4-(trifluoromethyl)phenyl]-2-{5-ethyl-6-[4-(5-hydroxy-6-methylpyrimidine-4-carbonyl)piperazin-1-yl]-2-(2-methoxypyridin-4-yl)-7-oxo-4H,7H-[1,2,4]triazolo[1,5-a]pyrimidin-4-yl}acetamide], which IC50 is on record?
Its IC50 is 5 to 50 nM.

With `CCc1c(N2CCN(C(=O)c3nc(C)cs3)CC2)c(=O)n2nc(-c3ccnc(OC)c3)nc2n1CC(=O)Nc1ccc(C(F)(F)F)cc1Cl` [Compound I-57, N-[2-chloro-4-(trifluoromethyl)phenyl]-2-[5-ethyl-2-(2-methoxypyridin-4-yl)-6-[4-(4-methyl-1,3-thiazole-2-carbonyl)piperazin-1-yl]-7-oxo-4H,7H-[1,2,4]triazolo[1,5-a]pyrimidin-4-yl]acetamide] as the compound, how does the IC50 read?
Its IC50 is 100 to 500 nM.

Which IC50 does the source give for `CCc1c(N2CCN(C(=O)c3cccc(C)c3O)CC2)c(=O)n2nc(C3=CCOCC3)nc2n1CC(=O)Nc1ccc(C(F)(F)F)cc1Cl` [Compound I-3, N-[2-chloro-4-(trifluoromethyl)phenyl]-2-[2-(3,6-dihydro-2H-pyran-4-yl)-5-ethyl-6-[4-(2-hydroxy-3-methylbenzoyl)piperazin-1-yl]-7-oxo-4H,7H-[1,2,4]triazolo[1,5-a]pyrimidin-4-yl]acetamide] here?
Its IC50 is 5 to 50 nM.

For `CCc1c(N2CCN(C(=O)c3ccn(C)n3)CC2)c(=O)n2nc(C3=CCOCC3)nc2n1CC(=O)Nc1ccc(C(F)(F)F)cc1Cl` [Compound I-30, N-[2-chloro-4-(trifluoromethyl)phenyl]-2-[2-(3,6-dihydro-2H-pyran-4-yl)-5-ethyl-6-[4-(1-methyl-1H-pyrazole-3-carbonyl)piperazin-1-yl]-7-oxo-4H,7H-[1,2,4]triazolo[1,5-a]pyrimidin-4-yl]acetamide], which IC50 is on record?
Its IC50 is 5 to 50 nM.

Which IC50 does the source give for `CCc1c(N2CCN(C(=O)C(F)(F)F)CC2)c(=O)n2nc(-c3ccnc(OC)c3)nc2n1CC(=O)Nc1ccc(C(F)(F)F)cc1Cl` [Compound I-47, N-[2-chloro-4-(trifluoromethyl)phenyl]-2-[5-ethyl-2-(2-methoxypyridin-4-yl)-7-oxo-6-[4-(2,2,2-trifluoroacetyl)piperazin-1-yl]-4H,7H-[1,2,4]triazolo[1,5-a]pyrimidin-4-yl]acetamide] here?
The IC50 was 50 to 100 nM.

Which IC50 does the source give for `CCc1c(N2CCN(C(=O)c3c(O)noc3C)CC2)c(=O)n2nc(C3=CCOCC3)nc2n1CC(=O)Nc1ccc(C(F)(F)F)cc1Cl` [Compound I-28, N-[2-chloro-4-(trifluoromethyl)phenyl]-2-[2-(3,6-dihydro-2H-pyran-4-yl)-5-ethyl-6-[4-(3-hydroxy-5-methyl-1,2-oxazole-4-carbonyl)piperazin-1-yl]-7-oxo-4H,7H-[1,2,4]triazolo[1,5-a]pyrimidin-4-yl]acetamide] here?
Its IC50 is under 5 nM.

For `CCc1c(N2CCN(C(=O)c3ncnc(C)c3O)CC2)c(=O)n2nc(-c3cnn(C4CC4)c3)nc2n1CC(=O)Nc1ccc(C(F)(F)F)cc1Cl` [Compound I-32, N-[2-chloro-4-(trifluoromethyl)phenyl]-2-[2-(1-cyclopropyl-1H-pyrazol-4-yl)-5-ethyl-6-[4-(5-hydroxy-6-methylpyrimidine-4-carbonyl)piperazin-1-yl]-7-oxo-4H,7H-[1,2,4]triazolo[1,5-a]pyrimidin-4-yl]acetamide], which IC50 is on record?
The IC50 was 5 to 50 nM.

`CCc1c(N2CCN(C(=O)c3nocc3O)CC2)c(=O)n2nc(-c3ccnc(OC)c3)nc2n1CC(=O)Nc1ccc(C(F)(F)F)cc1Cl` [Compound I-88, N-[2-chloro-4-(trifluoromethyl)phenyl]-2-{5-ethyl-6-[4-(4-hydroxy-1,2-oxazole-3-carbonyl)piperazin-1-yl]-2-(2-methoxypyridin-4-yl)-7-oxo-4H,7H-[1,2,4]triazolo[1,5-a]pyrimidin-4-yl}acetamide] was tested. Which IC50 did it give?
Its IC50 is 5 to 50 nM.

How did the IC50 turn out when `CCc1c(N2CCN(C(=O)c3cc(C)ns3)CC2)c(=O)n2nc(-c3ccnc(OC)c3)nc2n1CC(=O)Nc1ccc(C(F)(F)F)cc1Cl` [Compound I-76, N-[2-chloro-4-(trifluoromethyl)phenyl]-2-[5-ethyl-2-(2-methoxypyridin-4-yl)-6-[4-(3-methyl-1,2-thiazole-5-carbonyl)piperazin-1-yl]-7-oxo-4H,7H-[1,2,4]triazolo[1,5-a]pyrimidin-4-yl]acetamide] was run?
Its IC50 is 5 to 50 nM.

Which IC50 does the source give for `CCc1c(N2CCN(C(=O)c3ncnc(C)c3O)CC2)c(=O)n2nc(-c3cc(C)nc(OC)c3)nc2n1CC(=O)Nc1ccc(C(F)(F)F)cc1Cl` [Compound I-43, N-[2-chloro-4-(trifluoromethyl)phenyl]-2-{5-ethyl-6-[4-(5-hydroxy-6-methylpyrimidine-4-carbonyl)piperazin-1-yl]-2-(2-methoxy-6-methylpyridin-4-yl)-7-oxo-4H,7H-[1,2,4]triazolo[1,5-a]pyrimidin-4-yl}acetamide] here?
Its IC50 is 5 to 50 nM.
